19 molecules from patent publication US8012939B2 (Tibotec Pharmaceuticals Ltd. Co, priority 2005, dated 2011) can be followed below.

For series [1] the following is noted: rcm bond, Hoveyda-Grubbs 1st generation catalyst, 1,2-dichloroethane, 70.0 °C.
Series [2] addresses T1, HCV NS3/4A protease complexes (full-length hepatitis C NS3 protease enzyme with NS4A cofactor) (Hepatitis C virus genotype 1a, UniProt P27958).
T1 construct: full-length hepatitis C NS3 protease enzyme
Nature of the series: Inhibition assay (enzymatic assay, depsipeptide substrate hydrolysis). Format: biochemical. To be noted: enzyme 1 nM, 25 μM NS4A cofactor, 0.5 μM substrate, 30° C., pH 7.5, model for competitive inhibition. Here is the method:
[Landro, 1997 #Biochem 36 9340-9348]. […] The solutions were stored at −20° C. between measurements.
[Liu, 1999 Analytical Biochemistry 267 331-335].

The test system of series [3] is HCV replicons (HCV type 1b, Huh-7 luc/neo cells). Nature of the series: Replicon assay (Huh-Luc cells, luciferase read-out). The class given is cell-based. To be noted: Hepatitis C virus, Huh-7, 72 h. The text has this: The compounds of formula (I) were examined for activity in the inhibition of HCV RNA replication in a cellular assay. […] The cellular assay was based on a bicistronic expression construct, as described by Lohmann et al. (1999) Science vol. 285 pp. 110-113 with modifications described by Krieger et al. (2001) Journal of Virology 75: 4614-4624, in a multi-target screening strategy. In essence, the method was as follows.
The assay utilized the stably transfected cell line Huh-7 luc/neo (hereafter referred to as Huh-Luc). This cell line harbors an RNA encoding a bicistronic expression construct comprising the wild type NS3-NS5B regions of HCV type 1b translated from an Internal Ribosome Entry Site (IRES) from encephalomyocarditis virus (EMCV), preceded by a reporter portion (FfL-luciferase), and a selectable marker portion (neo^R, neomycine phosphotransferase). The construct is bordered by 5′ and 3′ NTRs (non-translated regions) from HCV type 1b. Continued culture of the replicon cells in the presence of G418 (neo^R) is dependent on the replication of the HCV RNA. The stably transfected replicon cells that express HCV RNA, which replicates autonomously and to high levels, encoding inter alia luciferase, are used for screening the antiviral compounds.
The replicon cells were plated in 384 well plates in the presence of the test and control compounds which were added in various concentrations. Following an incubation of three days, HCV replication was measured by assaying luciferase activity (using standard luciferase assay substrates and reagents and a Perkin Elmer ViewLux™ ultraHTS microplate imager). Replicon cells in the control cultures have high luciferase expression in the absence of any inhibitor. The inhibitory activity of the compound on luciferase activity was monitored on the Huh-Luc cells, enabling a doseresponse curve for each test compound.
A general note: In antiviral work, replicon cells carry a viral genome segment that copies itself.

The mark [4] stands for this setting: Huh-Luc cells, incubation of three days, luciferase activity.

SMILES strings stand for the structures. Read-outs that look alike come from different tables or passages of the source.

T1 sequence (P27958 1027-1657, one chain of several): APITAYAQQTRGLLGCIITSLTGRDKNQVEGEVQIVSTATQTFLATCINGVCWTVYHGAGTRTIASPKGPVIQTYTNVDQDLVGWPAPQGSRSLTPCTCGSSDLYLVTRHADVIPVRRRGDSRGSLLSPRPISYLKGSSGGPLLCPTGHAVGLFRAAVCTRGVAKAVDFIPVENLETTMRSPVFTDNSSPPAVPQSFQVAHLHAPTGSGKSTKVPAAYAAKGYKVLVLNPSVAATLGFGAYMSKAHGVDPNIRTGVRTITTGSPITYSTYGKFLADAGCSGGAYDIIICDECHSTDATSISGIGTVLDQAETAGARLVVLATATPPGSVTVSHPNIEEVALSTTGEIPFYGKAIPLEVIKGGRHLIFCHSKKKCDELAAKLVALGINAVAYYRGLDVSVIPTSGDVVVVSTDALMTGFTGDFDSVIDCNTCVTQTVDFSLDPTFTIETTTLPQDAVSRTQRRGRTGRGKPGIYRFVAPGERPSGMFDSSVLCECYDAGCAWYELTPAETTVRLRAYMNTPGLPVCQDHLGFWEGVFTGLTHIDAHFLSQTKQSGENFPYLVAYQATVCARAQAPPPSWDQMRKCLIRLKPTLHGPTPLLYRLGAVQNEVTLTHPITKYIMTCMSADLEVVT

Regarding `CCOC(=O)C12CC1C=CCCCCN(C)C(=O)C1CC(Oc3nc(-c4nc(C5CC5)cs4)cc4cc(OC)ccc34)CC1C(=O)N2` (stereo not shown), the ring closure, yield of all isomers in series [1] (from C=CCCCCN(C)C(=O)C1CC(Oc2nc(-c3nc(C4CC4)cs3)cc3cc(OC)ccc23)CC1C(=O)NC1(C(=O)OCC)CC1C=C, 0.8 mM, 12.0 h) was found to be 85%.

With `CCOC(=O)C12CC1C=CCCCCN(C)C(=O)N1CC(OC(=O)c3ccc([N+](=O)[O-])cc3)CC1C(=O)N2` (stereo not shown), the ring closure, yield of all isomers in series [1] (from C=CCCCCN(C)C(=O)N1CC(OC(=O)c2ccc([N+](=O)[O-])cc2)CC1C(=O)NC1(C(=O)OCC)CC1C=C, 1.64 mM, 20.0 h) came out at 51%.

Molecule `CCOC(=O)C12CC1C=CCCCCN(C)C(=O)N1CC(Oc3nc(Cl)cc4cc(OC)ccc34)CC1C(=O)N2` (stereo not shown) had a ring closure, yield of all isomers in series [1] (from C=CCCCCN(C)C(=O)N1CC(Oc2nc(Cl)cc3cc(OC)ccc23)CC1C(=O)NC1(C(=O)OCC)CC1C=C, 2.17 mM, 20.0 h) of 58%.

The molecule `CCOC(=O)C12CC1C=CCCCCN(C)C(=O)N1CC(Oc3ncc(Br)c4cc(OC)ccc34)CC1C(=O)N2` (stereo not shown) registered a ring closure, yield of all isomers in series [1] (from C=CCCCCN(C)C(=O)N1CC(Oc2ncc(Br)c3cc(OC)ccc23)CC1C(=O)NC1(C(=O)OCC)CC1C=C, 1.55 mM, 20.0 h) of 38%.

In series [2], `COc1ccc2c(O[C@@H]3C[C@H]4C(=O)N[C@]5(C(=O)O)C[C@H]5/C=C\CCCCN(C)C(=O)[C@@H]4C3)nc(-c3nc(C(C)C)cs3)cc2c1` [Compound 31, 17-[3-(4-isopropylthiazol-2-yl)-6-methoxyisoquinolin-1-yloxy]-13-methyl-2,14-dioxo-3,13-diazatricyclo[13.3.0.0^4,6]octadec-7-ene-4-carboxylic acid] had a Ki of 300 nM. Also, in series [3] (setting [4]), the EC50 is above 10000 nM.

In series [2], `COc1ccc2c(O[C@@H]3C[C@H]4C(=O)N[C@]5(C(=O)NS(=O)(=O)C6CC6)C[C@H]5/C=C\CCCCN(C)C(=O)[C@@H]4C3)nc(-c3nc(C(C)C)cs3)cc2c1` [Compound 32, N-[17-[3-(4-isopropylthiazol-2-yl)-6-methoxyisoquinolin-1-yloxy]-13-methyl-2,14-dioxo-3,13-diazatricyclo[13.3.0.0^4,6]octadec-7-ene-4-carbonyl](cyclopropyl)sulfonamide] had an inhibition constant (Ki) of 1.4 nM. The concentration giving a half-maximal response (EC50) in series [3] (setting [4]) turned out to be 3570 nM.

Molecule `COc1ccc2c(O[C@@H]3C[C@H]4C(=O)N[C@]5(C(=O)O)C[C@H]5/C=C\CCCCN(C)C(=O)[C@@H]4C3)nc(-c3csc(NC(C)C)n3)cc2c1` [Compound 33, 17-[3-(2-isopropylaminothiazol-4-yl)-6-methoxyisoquinolin-1-yloxy]-13-methyl-2,14-dioxo-3,13-diazatricyclo[13.3.0.0^4,6]octadec-7-ene-4-carboxylic acid] displayed a Ki in series [2] above 1000 nM. Besides, the EC50 in series [3] (setting [4]) worked out at 47500 nM.

The molecule `COc1ccc2c(O[C@@H]3C[C@H]4C(=O)N[C@]5(C(=O)NS(=O)(=O)C6CC6)C[C@H]5/C=C\CCCCN(C)C(=O)[C@@H]4C3)nc(-c3csc(NC(C)C)n3)cc2c1` [Compound 34, N-[17-[3-(2-isopropylaminothiazol-4-yl)-6-methoxyisoquinolin-1-yloxy]-13-methyl-2,14-dioxo-3,13-diazatricyclo[13.3.0.0^4,6]octadec-7-ene-4-carbonyl](cyclopropyl)sulfonamide] had a Ki in series [2] of 3.3 nM. For the same molecule, the EC50 in series [3] (setting [4]) worked out at 1640 nM.

As to `COc1ccc2c(O[C@@H]3C[C@H]4C(=O)N[C@]5(C(=O)O)C[C@H]5/C=C\CCCCN(C)C(=O)[C@@H]4C3)nc(-n3cccn3)cc2c1` [Compound 35, 17-[3-(pyrazol-1-yl)-6-methoxyisoquinolin-1-yloxy]-13-methyl-2,14-dioxo-3,13-diazatricyclo[13.3.0.0^4,6]octadec-7-ene-4-carboxylic acid], the Ki in series [2] was above 1000 nM. Moreover, the EC50 in series [3] is 20900 nM.

In turn, `COc1ccc2c(O[C@@H]3C[C@H]4C(=O)N[C@]5(C(=O)NS(=O)(=O)C6CC6)C[C@H]5/C=C\CCCCN(C)C(=O)[C@@H]4C3)nc(-n3cccn3)cc2c1` [Compound 36, N-[17-[3-(pyrazol-1-yl)-6-methoxyisoquinolin-1-yloxy]-13-methyl-2,14-dioxo-3,13-diazatricyclo[13.3.0.0^4,6]octadec-7-ene-4-carbonyl]-(cyclopropyl) sulfonamide] yielded a Ki in series [2] of 0.7 nM. The EC50 in series [3] (setting [4]) is 72 nM.

`COc1ccc2c(O[C@@H]3C[C@H]4C(=O)N[C@]5(C(=O)O)C[C@H]5/C=C\CCCCN(C)C(=O)N4C3)nc(Cl)cc2c1` [Compound 42, 17-(3-chloro-6-methoxyisoquinolin-1-yloxy)-13-methyl-2,14-dioxo-3,13,15-triaza-tricyclo[13.3.0.0^4,6]octadec-7-ene-4-carboxylic acid] gave a Ki in series [2] of 620 nM. Also, the EC50 in series [3] (setting [4]) was above 10000 nM.

`COc1ccc2c(O[C@@H]3C[C@H]4C(=O)N[C@]5(C(=O)NS(=O)(=O)C6CC6)C[C@H]5/C=C\CCCCN(C)C(=O)N4C3)nc(Cl)cc2c1` [Compound 43, N-[17-(3-chloro-6-methoxyisoquinolin-1-yloxy)-13-methyl-2,14-dioxo-3,13,15-triaza-tricyclo[13.3.0.0^4,6]octadec-7-ene-4-carbonyl](cyclopropyl) sulfonamide] returned a Ki in series [2] of 15 nM. Further, the EC50 in series [3] (setting [4]) turned out to be 2100 nM.

On to `COc1ccc2c(O[C@@H]3C[C@H]4C(=O)N[C@]5(C(=O)NS(=O)(=O)C6CC6)C[C@H]5/C=C\CCCCN(C)C(=O)N4C3)nccc2c1Br` [Compound 51, N-[17-(5-bromo-6-methoxyisoquinolin-1-yloxy)-13-methyl-2,14-dioxo-3,13,15-triaza-tricyclo[13.3.0.0^4,6]octadec-7-ene-4-carbonyl](cyclopropyl)sulfonamide], for which the affinity in series [2], expressed as Ki, was 1.7 nM. In addition, the EC50 in series [3] (setting [4]) stood at 58 nM.

In turn, `COc1ccc2c(O[C@@H]3C[C@H]4C(=O)N[C@]5(C(=O)O)C[C@H]5/C=C\CCCCN(C)C(=O)N4C3)nccc2c1` [Compound 55, 17-(6-methoxyisoquinolin-1-yloxy)-13-methyl-2,14-dioxo-3,13,15-triaza-tricyclo[13.3.0.0^4,6]octadec-7-ene-4-carboxylic acid] displayed a Ki in series [2] above 1000 nM. For the same molecule, the half-maximal effective concentration (EC50) in series [3] (setting [4]) is above 100000 nM.

As to `COc1ccc2c(O[C@@H]3C[C@H]4C(=O)N[C@]5(C(=O)NS(=O)(=O)C6CC6)C[C@H]5/C=C\CCCCN(C)C(=O)N4C3)nc(-c3ccccc3)cc2c1` [Compound 56, N-[17-(3-phenyl-6-methoxyisoquinolin-1-yloxy)-13-methyl-2,14-dioxo-3,13,15-triaza-tricyclo[13.3.0.0^4,6]octadec-7-ene-4-carbonyl](cyclopropyl) sulfonamide], the affinity in series [2] corresponds to a Ki of 1.1 nM. Further, the EC50 in series [3] was 1030 nM.

For the molecule `COc1ccc2c(O[C@@H]3C[C@H]4C(=O)N[C@]5(C(=O)O)C[C@H]5/C=C\CCCCN(C)C(=O)N4C3)nc(-c3ccc(OC(F)(F)F)cc3)cc2c1` [Compound 57, 17-(3-(4-trifluoromethoxyphenyl)-6-methoxyisoquinolin-1-yloxy)-13-methyl-2,14-dioxo-3,13,15-triaza-tricyclo[13.3.0.0^4,6]octadec-7-ene-4-carboxylic acid], the affinity in series [2] corresponds to a Ki of 210 nM. Besides, in series [3] (setting [4]), the half-maximal effective concentration (EC50) is 8090 nM.

`COc1ccc2c(O[C@@H]3C[C@H]4C(=O)N[C@]5(C(=O)O)C[C@H]5/C=C\CCCCN(C)C(=O)N4C3)nc(-n3cccn3)cc2c1` [Compound 67, 17-(3-pyrazol-1-yl-6-methoxyisoquinolin-1-yloxy)-13-methyl-2,14-dioxo-3,13,15-triaza-tricyclo[13.3.0.0^4,6]octadec-7-ene-4-carboxylic acid] gave a Ki in series [2] above 1000 nM. Moreover, the EC50 in series [3] (setting [4]) is above 10000 nM.

Consider `COc1ccc2c(O[C@@H]3C[C@H]4C(=O)N[C@]5(C(=O)NS(=O)(=O)C6CC6)C[C@H]5/C=C\CCCCN(C)C(=O)N4C3)nc(-n3cccn3)cc2c1` [Compound 68, N-[17-(3-pyrazol-1-yl-6-methoxyisoquinolin-1-yloxy)-13-methyl-2,14-dioxo-3,13,15-triaza-tricyclo[13.3.0.0^4,6]octadec-7-ene-4-carbonyl](cyclopropyl)sulfonamide], for which affinity in series [2] was put at a Ki of 2.5 nM. Further, the EC50 in series [3] (setting [4]) stood at 165 nM.

In turn, `COc1ccc2c(O[C@@H]3C[C@H]4C(=O)N[C@]5(C(=O)NS(=O)(=O)C6CC6)C[C@H]5/C=C\CCCCN(C)C(=O)N4C3)nc(-c3nc(C(C)C)cs3)cc2c1` [Compound 70, N-[17-[3-(4-isopropylthiazol-2-yl)-6-methoxyisoquinolin-1-yloxy]-13-methyl-2,14-dioxo-3,13,15-triaza-tricyclo[13.3.0.0^4,6]octadec-7-ene-4-carbonyl](cyclopropyl)sulfonamide] showed a Ki in series [2] of 33 nM. The EC50 in series [3] (setting [4]) worked out at 6730 nM.

As a reminder, the Ki is the equilibrium dissociation constant of an inhibitor or competing ligand from its target. The EC50 is the concentration that produces a half-maximal response.
